Data reported in patent US11912701B2, “Protein kinase inhibitors for promoting liver regeneration or reducing or preventing hepatocyte death” (HEPAREGENIX GMBH, priority 2018, dated 2024).

Assays:
[1] = target: T1, BRaf (Homo sapiens, UniProt P15056); test: KINOMEscan competition binding assay, BRaf; details: ratio PoC (off-target)/PoC (MKK4)
T1 construct: purchased ProQinase GmbH, Freiburg, Germany (33PanQinase Assay Service)
In short: (§1)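 DNA-tagged kinases expressed in HEK-293 cells compete between immobilized ligand on blocked beads and test compound at 100 nM; kinase retained on beads quantified by qPCR of the tag.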

[2] = target: T2, JNK1 (Homo sapiens, UniProt P45983); test: 33PanQinase enzyme assay, JNK1; type: biochemical; design: purchased ProQinase GmbH, Freiburg, Germany (33PanQinase Assay Service); details: ratio IC50(JNK1)/IC50(MKK4)
In short: (§2)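 33Pi incorporation, read by microplate scintillation counting, measured kinase activity after 60 min at 30 °C. Reactions were quenched with 2% (v/v) H3PO4 and washed with 0.9% NaCl. IC50 derived by least-squares fitting; single doses reported as % residual activity.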

[3] = target: T1, BRaf; test: 33PanQinase enzyme assay, BRaf; type: biochemical; details: ratio IC50(BRaf)/IC50(MKK4)
In short: as §2

[4] = target: T3, MKK4 (Homo sapiens, UniProt P45985); test: KINOMEscan competition binding assay, MKK4; details: residual percent of control binding (PoC) at 100 nM
T3 construct: S84/D399; host or cells: HEK-293
T3 sequence (P45985 84-399): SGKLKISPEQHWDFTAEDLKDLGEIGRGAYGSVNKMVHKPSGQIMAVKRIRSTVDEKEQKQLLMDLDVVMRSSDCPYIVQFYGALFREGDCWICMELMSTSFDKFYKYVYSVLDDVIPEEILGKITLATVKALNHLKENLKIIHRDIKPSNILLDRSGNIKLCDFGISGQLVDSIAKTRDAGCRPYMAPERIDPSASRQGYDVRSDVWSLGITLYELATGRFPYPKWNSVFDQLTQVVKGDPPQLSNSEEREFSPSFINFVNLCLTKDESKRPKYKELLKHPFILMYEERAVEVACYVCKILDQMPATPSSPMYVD
In short: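 Tested at 100 nM and reported as percent of control binding (PoC). MKK4 was produced in HEK-293 cells and DNA-tagged. Displacement from ligand-coated, blocked beads was read by qPCR of eluted kinase.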

[5] = target: T4, MKK7 (Homo sapiens, UniProt O14733); test: 33PanQinase enzyme assay, MKK7; type: biochemical; design: purchased ProQinase GmbH, Freiburg, Germany (33PanQinase Assay Service); details: ratio IC50(MKK7)/IC50(MKK4)
T4 sequence (O14733 1-419): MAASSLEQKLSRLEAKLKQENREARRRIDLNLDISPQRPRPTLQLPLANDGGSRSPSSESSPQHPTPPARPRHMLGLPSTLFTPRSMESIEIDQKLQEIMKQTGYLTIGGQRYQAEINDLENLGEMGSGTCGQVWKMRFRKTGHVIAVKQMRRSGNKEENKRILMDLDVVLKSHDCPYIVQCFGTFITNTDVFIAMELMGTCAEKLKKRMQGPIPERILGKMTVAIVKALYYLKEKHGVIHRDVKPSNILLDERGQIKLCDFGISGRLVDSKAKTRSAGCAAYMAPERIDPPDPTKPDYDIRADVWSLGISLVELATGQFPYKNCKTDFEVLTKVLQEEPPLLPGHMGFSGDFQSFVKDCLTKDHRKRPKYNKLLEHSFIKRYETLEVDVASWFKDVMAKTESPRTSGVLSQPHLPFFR
In short: as §2

[6] = target: T2, JNK1; test: KINOMEscan competition binding assay, JNK1; design: M1/Q384; host or cells: HEK-293; details: ratio PoC (off-target)/PoC (MKK4)
In short: as §1

[7] = target: T5, MKK4 (Homo sapiens, UniProt P45985); test: 33PanQinase enzyme assay, MKK4; type: biochemical; details: assay 'IC50'; read-out: Potency MKK4 (IC50)
T5 construct: purchased ProQinase GmbH, Freiburg, Germany (33PanQinase Assay Service)
T5 sequence (P45985 1-399): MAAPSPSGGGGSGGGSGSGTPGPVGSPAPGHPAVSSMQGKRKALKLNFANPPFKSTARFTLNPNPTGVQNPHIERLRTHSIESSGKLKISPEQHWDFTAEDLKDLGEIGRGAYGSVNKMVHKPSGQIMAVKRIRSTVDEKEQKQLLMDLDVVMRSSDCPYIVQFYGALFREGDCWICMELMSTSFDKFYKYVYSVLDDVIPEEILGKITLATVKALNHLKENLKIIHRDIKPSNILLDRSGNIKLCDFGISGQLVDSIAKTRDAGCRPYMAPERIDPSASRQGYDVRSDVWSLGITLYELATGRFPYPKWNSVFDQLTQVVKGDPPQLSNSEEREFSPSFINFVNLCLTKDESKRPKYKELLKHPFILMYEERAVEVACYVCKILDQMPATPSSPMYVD
In short: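 Inhibition measured as 33Pi transfer to substrate after a 60-min, 30 °C reaction, acid-stopped and scintillation-counted.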

[8] = target: T4, MKK7; test: KINOMEscan competition binding assay, MKK7; design: M1/R419; host or cells: HEK-293; details: ratio PoC (off-target)/PoC (MKK4)
In short: as §1

T1 sequence (P15056 whole entry, species assumed): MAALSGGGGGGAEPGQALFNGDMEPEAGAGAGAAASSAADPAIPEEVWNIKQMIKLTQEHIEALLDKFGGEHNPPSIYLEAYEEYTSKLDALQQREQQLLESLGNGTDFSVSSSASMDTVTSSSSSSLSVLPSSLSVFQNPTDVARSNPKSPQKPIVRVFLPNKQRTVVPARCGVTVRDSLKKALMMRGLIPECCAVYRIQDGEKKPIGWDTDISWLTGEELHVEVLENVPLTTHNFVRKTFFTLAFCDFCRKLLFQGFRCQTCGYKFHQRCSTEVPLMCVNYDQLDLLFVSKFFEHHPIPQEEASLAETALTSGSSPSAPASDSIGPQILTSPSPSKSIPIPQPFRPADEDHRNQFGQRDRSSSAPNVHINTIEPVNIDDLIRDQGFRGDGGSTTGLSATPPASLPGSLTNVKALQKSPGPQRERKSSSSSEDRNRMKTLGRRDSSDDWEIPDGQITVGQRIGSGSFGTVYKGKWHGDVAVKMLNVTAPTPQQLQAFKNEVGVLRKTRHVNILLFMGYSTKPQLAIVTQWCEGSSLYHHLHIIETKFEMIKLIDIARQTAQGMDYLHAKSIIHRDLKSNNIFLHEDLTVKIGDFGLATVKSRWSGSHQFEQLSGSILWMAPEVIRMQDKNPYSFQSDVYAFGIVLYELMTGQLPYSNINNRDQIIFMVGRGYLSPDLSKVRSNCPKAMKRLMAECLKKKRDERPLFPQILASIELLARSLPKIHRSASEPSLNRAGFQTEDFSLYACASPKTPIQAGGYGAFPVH

For `O=C(c1c(F)ccc(NS(=O)(=O)CCC(F)(F)F)c1F)c1c[nH]c2ncc(-c3ccc(N4CCOCC4)nc3)cc12` [Example 79, N-(2,4-difluoro-3-(5-(6-morpholinopyridin-3-yl)-1H-pyrrolo[2,3-b]pyridine-3-carbonyl)phenyl)-3,3,3-trifluoropropane-1-sulfonamide], the “selectivity based on % Ctrl @100 nM vs. Braf” value [1] was “+++ (Ratio > 100)”, the “Selectivity JNK1, IC50(off-target)/IC50(MKK4)” value (shortened to “Selectivity JNK1”) [2] was “++ (100 ≥ IC50(off-target)/IC50(MKK4) > 10)” and the “Selectivity Braf, IC50(off-target)/IC50(MKK4)” value (from here on “Selectivity Braf”) [3] was “+ (10 ≥ IC50(off-target)/IC50(MKK4) > 3)”. For the same compound, the “MKK4 [% Ctrl @ 100 nM” value [4] was “+++ (PoC < 1)”, the “Selectivity IVIKK7, IC50(off-target)/IC50(MKK4)” value (“Selectivity IVIKK7” for short) [5] was “+++ (IC50(off-target)/IC50(MKK4) > 100)” and the “selectivity based on % Ctrl @100 nM vs. JNK1” value [6] was “+++ (Ratio > 100)”. For the same compound, the IC50 [7] was less than 0.1 µM and the “selectivity based on % Ctrl @100 nM vs. MKK7” value [8] was “+++ (Ratio > 100)”.

For `O=C(c1c(F)ccc(NS(=O)(=O)CCC(F)(F)F)c1F)c1c[nH]c2ncc(-c3ccc(N4CCS(=O)(=O)CC4)nc3)cc12` [Example 81, N-(3-(5-(6-(1,1-dioxidothiomorpholino)pyridin-3-yl)-1H-pyrrolo[2,3-b]pyridine-3-carbonyl)-2,4-difluorophenyl)-3,3,3-trifluoropropane-1-sulfonamide], the “selectivity based on % Ctrl @100 nM vs. Braf” value [1] was “+++ (Ratio > 100)”, the “Selectivity JNK1” value [2] was “++ (100 ≥ IC50(off-target)/IC50(MKK4) > 10)” and the “Selectivity Braf” value [3] was “+ (10 ≥ IC50(off-target)/IC50(MKK4) > 3)”. The “MKK4 [% Ctrl @ 100 nM” value [4] was “+++ (PoC < 1)”, the “Selectivity IVIKK7” value [5] was “+++ (IC50(off-target)/IC50(MKK4) > 100)” and the “selectivity based on % Ctrl @100 nM vs. JNK1” value [6] was “+++ (Ratio > 100)”. The IC50 [7] was less than 0.1 µM and the “selectivity based on % Ctrl @100 nM vs. MKK7” value [8] was “+++ (Ratio > 100)”.

In the case of `CCCS(=O)(=O)Nc1ccc(F)c(C(=O)c2c[nH]c3ncc(-c4ccc(C5CCC5)cc4)cc23)c1F` [Example 82, N-(3-(5-(4-cyclobutylphenyl)-1H-pyrrolo[2,3-b]pyridine-3-carbonyl)-2,4-difluorophenyl)propane-1-sulfonamide], the “selectivity based on % Ctrl @100 nM vs. Braf” value [1] is reported as “+++ (Ratio > 100)”, the “Selectivity JNK1” value [2] is reported as “+ (10 ≥ IC50(off-target)/IC50(MKK4) > 3)” and the “Selectivity Braf” value [3] is reported as “◯ (3 ≥ IC50(off-target)/IC50(MKK4))”. For the same compound, the “MKK4 [% Ctrl @ 100 nM” value [4] was “+++ (PoC < 1)”, the “Selectivity IVIKK7” value [5] was “+++ (IC50(off-target)/IC50(MKK4) > 100)” and the “selectivity based on % Ctrl @100 nM vs. JNK1” value [6] was “+++ (Ratio > 100)”. The IC50 [7] was 0.1 to 1 µM and the “selectivity based on % Ctrl @100 nM vs. MKK7” value [8] was “+++ (Ratio > 100)”.

In the case of `CCCS(=O)(=O)Nc1ccc(F)c(C(=O)c2c[nH]c3ncc(-c4cccc(O)c4)cc23)c1F` [Example 101, N-(2,4-difluoro-3-(5-(3-hydroxyphenyl)-1H-pyrrolo[2,3-b]pyridine-3-carbonyl)phenyl)propane-1-sulfonamide], the “selectivity based on % Ctrl @100 nM vs. Braf” value [1] is reported as “◯ (3 ≥ Ratio)”, the “Selectivity JNK1” value [2] is reported as “◯ (3 ≥ IC50(off-target)/IC50(MKK4))” and the “Selectivity Braf” value [3] is reported as “◯ (3 ≥ IC50(off-target)/IC50(MKK4))”. The “MKK4 [% Ctrl @ 100 nM” value [4] was “++ (1 ≤ PoC < 3)”, the “Selectivity IVIKK7” value [5] was “+++ (IC50(off-target)/IC50(MKK4) > 100)” and the “selectivity based on % Ctrl @100 nM vs. JNK1” value [6] was “++ (100 ≥ ratio > 10)”. For the same compound, the IC50 [7] was 0.1 to 1 µM and the “selectivity based on % Ctrl @100 nM vs. MKK7” value [8] was “++ (100 ≥ ratio > 10)”.

For `CCCS(=O)(=O)Nc1ccc(F)c(C(=O)c2c[nH]c3ncc(-c4ccccc4OC)cc23)c1F` [Example 102, N-(2,4-difluoro-3-(5-(2-methoxyphenyl)-1H-pyrrolo[2,3-b]pyridine-3-carbonyl)phenyl)propane-1-sulfonamide], the “selectivity based on % Ctrl @100 nM vs. Braf” value [1] was “++ (100 ≥ ratio > 10)”, the “Selectivity JNK1” value [2] was “+ (10 ≥ IC50(off-target)/IC50(MKK4) > 3)” and the “Selectivity Braf” value [3] was “◯ (3 ≥ IC50(off-target)/IC50(MKK4))”. The “MKK4 [% Ctrl @ 100 nM” value [4] was “++ (1 ≤ PoC < 3)”, the “Selectivity IVIKK7” value [5] was “+++ (IC50(off-target)/IC50(MKK4) > 100)” and the “selectivity based on % Ctrl @100 nM vs. JNK1” value [6] was “++ (100 ≥ ratio > 10)”. For the same compound, the IC50 [7] was 0.1 to 1 µM and the “selectivity based on % Ctrl @100 nM vs. MKK7” value [8] was “++ (100 ≥ ratio > 10)”.

With `CCCS(=O)(=O)Nc1ccc(F)c(C(=O)c2c[nH]c3ncc(-c4cccc(OC)c4)cc23)c1F` [Example 103, N-(2,4-difluoro-3-(5-(3-methoxyphenyl)-1H-pyrrolo[2,3-b]pyridine-3-carbonyl)phenyl)propane-1-sulfonamide] the “selectivity based on % Ctrl @100 nM vs. Braf” value [1] was “◯ (3 ≥ Ratio)”, the “Selectivity JNK1” value [2] was “+ (10 ≥ IC50(off-target)/IC50(MKK4) > 3)” and the “Selectivity Braf” value [3] was “◯ (3 ≥ IC50(off-target)/IC50(MKK4))”. For the same compound, the “MKK4 [% Ctrl @ 100 nM” value [4] was “+ (3 ≤ PoC < 30)”, the “Selectivity IVIKK7” value [5] was “+++ (IC50(off-target)/IC50(MKK4) > 100)” and the “selectivity based on % Ctrl @100 nM vs. JNK1” value [6] was “++ (100 ≥ ratio > 10)”. The IC50 [7] was 0.1 to 1 µM and the “selectivity based on % Ctrl @100 nM vs. MKK7” value [8] was “++ (100 ≥ ratio > 10)”.

`CCCS(=O)(=O)Nc1ccc(F)c(C(=O)c2c[nH]c3ncc(-c4ccc(OC)c(OC)c4)cc23)c1F` [Example 105, N-(3-(5-(3,4-dimethoxyphenyl)-1H-pyrrolo[2,3-b]pyridine-3-carbonyl)-2,4-difluorophenyl)propane-1-sulfonamide] was tested, and the “selectivity based on % Ctrl @100 nM vs. Braf” value [1] was “◯ (3 ≥ Ratio)”, the “Selectivity JNK1” value [2] was “++ (100 ≥ IC50(off-target)/IC50(MKK4) > 10)” and the “Selectivity Braf” value [3] was “◯ (3 ≥ IC50(off-target)/IC50(MKK4))”. The “MKK4 [% Ctrl @ 100 nM” value [4] was “++ (1 ≤ PoC < 3)”, the “Selectivity IVIKK7” value [5] was “+++ (IC50(off-target)/IC50(MKK4) > 100)” and the “selectivity based on % Ctrl @100 nM vs. JNK1” value [6] was “++ (100 ≥ ratio > 10)”. For the same compound, the IC50 [7] was 0.1 to 1 µM and the “selectivity based on % Ctrl @100 nM vs. MKK7” value [8] was “++ (100 ≥ ratio > 10)”.

For `CCCS(=O)(=O)Nc1ccc(F)c(C(=O)c2c[nH]c3ncc(-c4ccc(C(F)(F)F)cc4)cc23)c1F` [Example 106, N-(2,4-difluoro-3-(5-(4-(trifluoromethyl)phenyl)-1H-pyrrolo[2,3-b]pyridine-3-carbonyl)phenyl)propane-1-sulfonamide], the “selectivity based on % Ctrl @100 nM vs. Braf” value [1] was “◯ (3 ≥ Ratio)”, the “Selectivity JNK1” value [2] was “+ (10 ≥ IC50(off-target)/IC50(MKK4) > 3)” and the “Selectivity Braf” value [3] was “◯ (3 ≥ IC50(off-target)/IC50(MKK4))”. The “MKK4 [% Ctrl @ 100 nM” value [4] was “+ (3 ≤ PoC < 30)”, the “Selectivity IVIKK7” value [5] was “+++ (IC50(off-target)/IC50(MKK4) > 100)” and the “selectivity based on % Ctrl @100 nM vs. JNK1” value [6] was “+ (10 ≥ ratio > 3)”. For the same compound, the IC50 [7] was 0.1 to 1 µM and the “selectivity based on % Ctrl @100 nM vs. MKK7” value [8] was “+ (10 ≥ ratio > 3)”.
